Data taken from ChEMBL document CHEMBL2203235, “Optimization of a natural product-based class of γ-secretase modulators” (J Med Chem, 2012).
pIC50: −log10 of the molar value.

Experiments:
[1] = Modulation of gamma secretase in CHO-2B7 cells assessed as reduction in amyloid beta 40 level after 5 hrs by MSD ELISA; format: cell-based; conditions: Cricetulus griseus, CHO-2B7, 5 h
[2] = test system: Liver microsomes; assay: Metabolic stability in human liver microsomes at 1 uM after 60 mins by LC/MS/MS analysis; conditions: 1 h
[3] = Modulation of gamma secretase in CHO-2B7 cells assessed as reduction in amyloid beta 42 level after 5 hrs by MSD ELISA; format: cell-based; conditions: Cricetulus griseus, CHO-2B7, 5 h

Compound	pIC50 [1]	Stability [2]	pIC50 [3]
CC(C)[C@@H](OC(=O)N1CCC1)[C@H]1C[C@@H](C)[C@H]2[C@H](O1)[C@H](O)[C@@]1(C)[C@@H]3CC[C@H]4C(C)(C)[C@@H](OC(=O)N[C@@H]5CCCNC5=O)CC[C@@]45C[C@@]35CC[C@]21C	5.18	Stable	6.42
COCCN1CCO[C@@H](O[C@H]2CC[C@]34C[C@]35CC[C@]3(C)[C@@H]6[C@H](O[C@@H]([C@H](OC(=O)N7CCC7)C(C)C)C[C@H]6C)[C@H](O)[C@@]3(C)[C@@H]5CC[C@H]4C2(C)C)C1	5.28	Stable	6.28
CC(C)C(=O)N1CCO[C@@H](O[C@H]2CC[C@]34C[C@]35CC[C@]3(C)[C@@H]6[C@H](O[C@@H]([C@H](OC(=O)N7CCC7)C(C)C)C[C@H]6C)[C@H](O)[C@@]3(C)[C@@H]5CC[C@H]4C2(C)C)C1	4.96	Stable	6.40
CC(C)[C@@H](OC(=O)N1CCC1)[C@H]1C[C@@H](C)[C@H]2[C@H](O1)[C@H](O)[C@@]1(C)[C@@H]3CC[C@H]4C(C)(C)[C@@H](OC(=O)NCCC(=O)O)CC[C@@]45C[C@@]35CC[C@]21C	4.89	Stable	6.21
CCO[C@@H]([C@H]1C[C@@H](C)[C@H]2[C@H](O1)[C@H](O)[C@@]1(C)[C@@H]3CC[C@H]4C(C)(C)[C@@H](OC(=O)N5CCN(CC(=O)O)CC5)CC[C@@]45C[C@@]35CC[C@]21C)C(C)(C)O	5.00	Stable	6.54
CCO[C@@H]([C@H]1C[C@@H](C)[C@H]2[C@H](O1)[C@H](O)[C@@]1(C)[C@@H]3CC[C@H]4C(C)(C)[C@@H](O[C@H]5CN(CCN6CCOC6=O)CCO5)CC[C@@]45C[C@@]35CC[C@]21C)C(C)(C)O	5.72	Stable	6.82
CC(C)[C@@H](OC(=O)N1CCC1)[C@H]1C[C@@H](C)[C@H]2[C@H](O1)[C@H](O)[C@@]1(C)[C@@H]3CC[C@H]4C(C)(C)[C@@H](OC(=O)N[C@@H]5CCNC5=O)CC[C@@]45C[C@@]35CC[C@]21C	5.23	Stable	6.74
CC(C)[C@@H](OC(=O)N1CCC1)[C@H]1C[C@@H](C)[C@H]2[C@H](O1)[C@H](O)[C@@]1(C)[C@@H]3CC[C@H]4C(C)(C)[C@@H](OC(=O)NCC(=O)O)CC[C@@]45C[C@@]35CC[C@]21C	5.14	Stable	6.38
CCO[C@@H]([C@H]1C[C@@H](C)[C@H]2[C@H](O1)[C@H](O)[C@@]1(C)[C@@H]3CC[C@H]4C(C)(C)[C@@H](OC(=O)N[C@@H]5CCNC5=O)CC[C@@]45C[C@@]35CC[C@]21C)C(C)(C)O	5.60	Stable	6.85
C[C@@H]1C[C@H]([C@H](O)C(C)(C)O)O[C@H]2[C@H]1[C@@]1(C)CC[C@@]34C[C@@]35CC[C@H](OC(=O)N3CCC3)C(C)(C)[C@@H]5CC[C@H]4[C@]1(C)[C@H]2O			4.89
CC(C)[C@@H](OC(=O)N1CCC1)[C@H]1C[C@@H](C)[C@H]2[C@H](O1)[C@H](O)[C@@]1(C)[C@@H]3CC[C@H]4C(C)(C)[C@@H](OC(=O)NCCNS(=O)(=O)C(F)(F)F)CC[C@@]45C[C@@]35CC[C@]21C	4.96	Stable	5.82
CC(C)CC(=O)N1CCO[C@@H](O[C@H]2CC[C@]34C[C@]35CC[C@]3(C)[C@@H]6[C@H](O[C@@H]([C@H](OC(=O)N7CCC7)C(C)C)C[C@H]6C)[C@H](O)[C@@]3(C)[C@@H]5CC[C@H]4C2(C)C)C1	4.96	Stable	5.89
CCO[C@@H]([C@H]1C[C@@H](C)[C@H]2[C@H](O1)[C@H](O)[C@@]1(C)[C@@H]3CC[C@H]4C(C)(C)[C@@H](O[C@H]5CN(C6CCOCC6)CCO5)CC[C@@]45C[C@@]35CC[C@]21C)C(C)(C)O	5.30	Stable	6.46
CCO[C@@H]([C@H]1C[C@@H](C)[C@H]2[C@H](O1)[C@H](O)[C@@]1(C)[C@@H]3CC[C@H]4C(C)(C)[C@@H](OC(=O)N5CC[C@H](C(=O)O)C5)CC[C@@]45C[C@@]35CC[C@]21C)C(C)(C)O	4.77	Stable	6.40
CCO[C@@H]([C@H]1C[C@@H](C)[C@H]2[C@H](O1)[C@H](O)[C@@]1(C)[C@@H]3CC[C@H]4C(C)(C)[C@@H](O[C@H]5CN(CCN6CCOCC6)CCO5)CC[C@@]45C[C@@]35CC[C@]21C)C(C)(C)O	5.89	Stable	6.37
CCO[C@@H]([C@H]1C[C@@H](C)[C@H]2[C@H](O1)[C@H](O)[C@@]1(C)[C@@H]3CC[C@H]4C(C)(C)[C@@H](O[C@H]5CN(CCN6CCC6)CCO5)CC[C@@]45C[C@@]35CC[C@]21C)C(C)(C)O	5.54	Stable	6.96
CCO[C@@H]([C@H]1C[C@@H](C)[C@H]2[C@H](O1)[C@H](O)[C@@]1(C)[C@@H]3CC[C@H]4C(C)(C)[C@@H](O[C@H]5CN(C(=O)CC6CNC6)CCO5)CC[C@@]45C[C@@]35CC[C@]21C)C(C)(C)O	5.60	Stable	6.92
CC(=O)N1CCN(C(=O)O[C@H]2CC[C@]34C[C@]35CC[C@]3(C)[C@@H]6[C@H](O[C@@H]([C@H](OC(=O)N7CCC7)C(C)C)C[C@H]6C)[C@H](O)[C@@]3(C)[C@@H]5CC[C@H]4C2(C)C)CC1	5.29	Stable	6.72
CCO[C@@H]([C@H]1C[C@@H](C)[C@H]2[C@H](O1)[C@H](O)[C@@]1(C)[C@@H]3CC[C@H]4C(C)(C)[C@@H](O[C@H]5CN(CCC(=O)O)CCO5)CC[C@@]45C[C@@]35CC[C@]21C)C(C)(C)O	5.02	Stable	6.51
C[C@@H]1C[C@H]([C@H](O)C(C)(C)O)O[C@H]2[C@H]1[C@@]1(C)CC[C@@]34C[C@@]35CC[C@H](OC(=O)NC3CN6CCC3CC6)C(C)(C)[C@@H]5CC[C@H]4[C@]1(C)[C@H]2O (some centres undefined)			6.24
CC(=O)O[C@@H]([C@H]1C[C@@H](C)[C@H]2[C@H](O1)[C@H](O)[C@@]1(C)[C@@H]3CC[C@H]4C(C)(C)[C@@H](O)CC[C@@]45C[C@@]35CC[C@]21C)C(C)(C)O			6.22
C[C@@H]1C[C@H]([C@H](O)C(C)(C)O)O[C@H]2[C@H]1[C@@]1(C)CC[C@@]34C[C@@]35CC[C@H](OC(=O)NCCN(C)C)C(C)(C)[C@@H]5CC[C@H]4[C@]1(C)[C@H]2O			5.24
C[C@@H]1C[C@H]([C@H](O)C(C)(C)O)O[C@H]2[C@H]1[C@@]1(C)CC[C@@]34C[C@@]35CC[C@H](OC(=O)N3CCOCC3)C(C)(C)[C@@H]5CC[C@H]4[C@]1(C)[C@H]2O			5.05
